Consider 33 molecules from patent publication US9315491B2 (DEVELOPMENT CENTER FOR BIOTECHNOLOGY, priority 2009, dated 2016).

The assay deals with recombinant mTOR (Homo sapiens (Human), UniProt P42345). As to the kind of experiment: mTOR kinase assay (33P incorporation into 4EBP1). The class given is biochemical. To be noted: compound at 10 μM, 10 μM ATP. The protocol: The activity of the compound against mTOR was examined by measuring the incorporation of ^33P from [γ-^33P]-ATP into 4EBP1. His-tagged, recombinant human 4EBP1 was expressed in E. coli, purified by nickel-nitrilotriacetic acid (Ni-NTA) resins, and stored at −80° C. Phosphorylation of 4EBP1 by mTOR was assayed in the presence or absence of the compound and performed in a final volume of 25 μl reaction buffer containing 300 ng 4EBP1, 50 ng recombinant mTOR (Invitrogen), 50 mM HEPES (pH 7.5), 1 mM EGTA, 0.01% Polysorbate 20, 10 mM MnCl2, 2.5 mM DTT, 10 μM ATP, and 0.5 μCi [γ-33P]-ATP (PerkinElmir) for 30 min at 30° C. The reactions were terminated by adding 3% phosphoric acid. The ^33P labeled 4EBP1 was transferred onto UniFilter-96 GF/B plate (PerkinElmer) and quantified by Top Count Microplate Scintillation Counter (PerkinElmer). For primary screening of kinase activity inhibition, each test compound was evaluated at […] in duplicate. […] The IC50 values of the compounds were determined after carrying out assays at eight serially diluted concentrations of each compound in duplicate. The results were analyzed using linear regression software (GraphPad Prism 5; GraphPad Software Inc.).
recombinant mTOR, sequence (P42345 1360-2549): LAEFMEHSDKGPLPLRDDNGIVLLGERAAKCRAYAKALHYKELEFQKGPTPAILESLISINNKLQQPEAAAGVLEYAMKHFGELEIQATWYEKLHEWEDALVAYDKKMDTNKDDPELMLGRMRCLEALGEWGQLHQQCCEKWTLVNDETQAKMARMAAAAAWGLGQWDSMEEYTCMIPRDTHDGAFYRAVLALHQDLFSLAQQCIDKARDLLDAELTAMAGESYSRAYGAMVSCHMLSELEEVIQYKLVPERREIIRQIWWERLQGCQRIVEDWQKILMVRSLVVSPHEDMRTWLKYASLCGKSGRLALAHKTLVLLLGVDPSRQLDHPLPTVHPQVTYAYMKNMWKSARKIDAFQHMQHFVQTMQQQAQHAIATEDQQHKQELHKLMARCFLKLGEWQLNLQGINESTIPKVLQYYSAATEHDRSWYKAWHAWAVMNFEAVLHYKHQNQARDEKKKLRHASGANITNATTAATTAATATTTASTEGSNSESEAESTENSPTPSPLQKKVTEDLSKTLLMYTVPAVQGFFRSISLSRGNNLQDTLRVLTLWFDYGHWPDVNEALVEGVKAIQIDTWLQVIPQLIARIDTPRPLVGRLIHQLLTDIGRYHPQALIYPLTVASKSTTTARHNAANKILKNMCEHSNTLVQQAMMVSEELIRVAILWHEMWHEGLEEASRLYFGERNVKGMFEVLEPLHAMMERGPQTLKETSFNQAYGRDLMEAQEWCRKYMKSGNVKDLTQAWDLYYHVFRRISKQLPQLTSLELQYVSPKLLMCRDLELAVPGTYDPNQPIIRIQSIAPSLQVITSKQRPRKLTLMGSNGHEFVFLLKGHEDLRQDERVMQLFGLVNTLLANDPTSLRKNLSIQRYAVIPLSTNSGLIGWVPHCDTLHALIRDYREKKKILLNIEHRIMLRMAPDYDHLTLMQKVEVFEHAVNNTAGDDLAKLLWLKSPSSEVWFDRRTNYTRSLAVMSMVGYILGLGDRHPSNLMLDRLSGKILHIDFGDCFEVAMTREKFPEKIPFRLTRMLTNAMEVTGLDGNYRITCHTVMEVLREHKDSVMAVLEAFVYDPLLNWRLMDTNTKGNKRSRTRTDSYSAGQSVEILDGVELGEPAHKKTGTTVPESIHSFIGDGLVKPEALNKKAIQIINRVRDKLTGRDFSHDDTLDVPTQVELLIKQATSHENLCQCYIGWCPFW
IC50 value is defined as the concentration of the test compound which achieves a half-maximal inhibition of the kinase activity.
With `COc1cnc(-c2ccc(NC(=S)Nc3ccc(F)cc3)cc2)nc1N1CCOCC1`, the inhibition at 10 µM was determined as 89%.
Consider `CCOC(=O)c1nc(-c2cccc(O)c2)nc(N2CCOCC2)c1OCC` [MTR-0037, 5-Ethoxy-2-(3-hydroxy-phenyl)-6-morpholin-4-yl-pyrimidine-4-carboxylic acid ethyl ester], for which the inhibition at 10 µM was 98%.
Take `CCOC(=O)c1nc(-c2ccc3[nH]ccc3c2)nc(N2CCOCC2)c1OCC` [MTR-0054, 5-Ethoxy-2-(1H-indol-5-yl)-6-morpholin-4-yl-pyrimidine-4-carboxylic acid ethyl ester]: the inhibition at 10 µM was determined as 81%.
As for `CCOC(=O)c1nc(-c2cccc(O)c2)nc(N2CCOCC2)c1OC` [MTR-0073, 2-(3-Hydroxy-phenyl)-5-methoxy-6-morpholin-4-yl-pyrimidine-4-carboxylic acid ethyl ester], the inhibition at 10 µM was determined as 86%.
As for `CSc1c(Cl)nc(-c2ccc(NC(=O)Nc3ccc(Cl)nc3)cc2)nc1N1CCOCC1` [MTR-0077, 1-[4-(4-Chloro-5-methylsulfanyl-6-morpholin-4-yl-pyrimidin-2-yl)-phenyl]-3-(6-chloro-pyridin-3-yl)-urea], the figure is 87%; as for `CCOC(=O)c1nc(-c2ccc(NC(=O)Nc3ccc(Cl)nc3)cc2)nc(N2CCOCC2)c1OCC` [MTR-0079, 2-{4-[3-(6-Chloro-pyridin-3-yl)-ureido]-phenyl}-5-ethoxy-6-morpholin-4-yl-pyrimidine-4-carboxylic acid ethyl ester], 83%; as for `CSc1c(Cl)nc(-c2ccc(O)cc2)nc1N1CCOCC1` [MTR-0098, 4-(4-Chloro-5-methylsulfanyl-6-morpholin-4-yl-pyrimidin-2-yl)-phenol], 86%.
In the case of `CCOC(=O)c1nc(-c2ccc(NC(=S)Nc3ccccc3)cc2)nc(N2CCOCC2)c1OCC` [MTR-0102, 5-Ethoxy-6-morpholin-4-yl-2-[4-(3-phenyl-thioureido)-phenyl]-pyrimidine-4-carboxylic acid ethyl ester], the inhibition at 10 µM amounted to 81%.
In the case of `CSc1c(Cl)nc(-c2ccc(NC(=O)NCCCl)cc2)nc1N1CCOCC1` [MTR-0108, 1-(2-Chloro-ethyl)-3-[4-(4-chloro-5-methylsulfanyl-6-morpholin-4-yl-pyrimidin-2-yl)-phenyl]-urea], the inhibition at 10 µM stood at 89%.
For the molecule `COc1cnc(-c2cccc(O)c2)nc1N1CCOCC1` [MTR-0116, 3-(5-Methoxy-4-morpholin-4-yl-pyrimidin-2-yl)-phenol], the inhibition at 10 µM stood at 81%.
As for `CCOc1c(C(=O)O)nc(-c2ccc(NC(=O)Nc3ccccc3)cc2)nc1N1CCOCC1` [MTR-0118, 5-Ethoxy-6-morpholin-4-yl-2-[4-(3-phenyl-ureido)-phenyl]-pyrimidine-4-carboxylic acid], the figure is 94%.
As for `CCOc1c(C(=O)N(CC)CC)nc(-c2ccc(NC(=O)Nc3ccccc3)cc2)nc1N1CCOCC1` [MTR-0120, 5-Ethoxy-6-morpholin-4-yl-2-[4-(3-phenyl-ureido)-phenyl]-pyrimidine-4-carboxylic acid diethylamide], the figure is 98%.
`CCOC(=O)c1nc(-c2ccc(NC(N)=O)cc2)nc(N2CCOCC2)c1OCC` [MTR-0121, 5-Ethoxy-6-morpholin-4-yl-2-(4-ureido-phenyl)-pyrimidine-4-carboxylic acid ethyl ester]: the inhibition at 10 µM is 94%.
As to `CSc1c(Cl)nc(-c2ccc(NC(=O)Nc3ccc(N(C)C)cc3)cc2)nc1N1CCOCC1` [MTR-0123, 1-[4-(4-Chloro-5-methylsulfanyl-6-morpholin-4-yl-pyrimidin-2-yl)-phenyl]-3-(4-dimethylamino-phenyl)-urea], the inhibition at 10 µM worked out at 91%.
As for `CCOc1c(C(N)=O)nc(-c2ccc(NC(=O)Nc3ccccc3)cc2)nc1N1CCOCC1` [MTR-0125, 5-Ethoxy-6-morpholin-4-yl-2-[4-(3-phenyl-ureido)-phenyl]-pyrimidine-4-carboxylic acid amide], the figure is 96%.
`CCNC(=O)Nc1ccc(-c2ncc(OC)c(N3CCOCC3)n2)cc1` [MTR-0129, 1-Ethyl-3-[4-(5-methoxy-4-morpholin-4-yl-pyrimidin-2-yl)-phenyl]-urea]: the inhibition at 10 µM was 96%.
As for `CSc1c(Cl)nc(-c2ccc(NC(=O)Nc3cccc(F)c3)cc2)nc1N1CCOCC1` [MTR-0137, 1-[4-(4-Chloro-5-methylsulfanyl-6-morpholin-4-yl-pyrimidin-2-yl)-phenyl]-3-(3-fluoro-phenyl)-urea], the inhibition at 10 µM amounted to 84%.
Regarding `CCOc1c(C(=O)NCCN2CCOCC2)nc(-c2ccc(NC(=O)Nc3ccccc3)cc2)nc1N1CCOCC1` [MTR-0139, 5-Ethoxy-6-morpholin-4-yl-2-[4-(3-phenyl-ureido)-phenyl]-pyrimidine-4-carboxylic acid (2-morpholin-4-yl-ethyl)-amide], the inhibition at 10 µM turned out to be 85%.
For the molecule `CCOc1c(C(=O)N2CCCC2)nc(-c2ccc(NC(=O)Nc3ccccc3)cc2)nc1N1CCOCC1` [MTR-0141, 1-{4-[5-Ethoxy-4-morpholin-4-yl-6-(pyrrolidine-1-carbonyl)-pyrimidin-2-yl]-phenyl}-3-phenyl-urea], the inhibition at 10 µM stood at 96%.
On to `CCOC(=O)c1nc(-c2ccc(NC(=O)Nc3ccc(F)cc3)cc2)nc(N2CCOCC2)c1OCC` [MTR-0149, 5-Ethoxy-2-{4-[3-(4-fluoro-phenyl)-ureido]-phenyl}-6-morpholin-4-yl-pyrimidine-4-carboxylic acid ethyl ester], for which the inhibition at 10 µM came to 93%.
For the molecule `CCOC(=O)c1nc(-c2ccc(NC(=O)Nc3ccc(F)c(F)c3)cc2)nc(N2CCOCC2)c1OCC` [MTR-0150, 2-{4-[3-(3,4-Difluoro-phenyl)-ureido]-phenyl}-5-ethoxy-6-morpholin-4-yl-pyrimidine-4-carboxylic acid ethyl ester], the inhibition at 10 µM stood at 87%.
In the case of `CCNC(=O)Nc1ccc(-c2ncc(SC)c(N3CCOCC3)n2)cc1` [MTR-0159, 1-Ethyl-3-[4-(5-methylsulfanyl-4-morpholin-4-yl-pyrimidin-2-yl)-phenyl]-urea], the inhibition at 10 µM turned out to be 97%.
Take `CCOc1c(CN2CCN(C)CC2)nc(-c2ccc(NC(=O)Nc3ccccc3)cc2)nc1N1CCOCC1` [MTR-0172, 1-{4-[5-Ethoxy-4-(4-methyl-piperazin-1-ylmethyl)-6-morpholin-4-yl-pyrimidin-2-yl]-phenyl}-3-phenyl-urea]: the inhibition at 10 µM was found to be 86%.
As to `CSc1cnc(-c2ccc(NC(=O)Nc3ccc(F)c(F)c3)cc2)nc1N1CCOCC1` [MTR-0177, 1-(3,4-Difluoro-phenyl)-3-[4-(5-methylsulfanyl-4-morpholin-4-yl-pyrimidin-2-yl)-phenyl]-urea], the inhibition at 10 µM is 84%.
Consider `COc1c(C(=O)O)nc(-c2ccc(NC(=O)Nc3ccccc3)cc2)nc1N1CCOCC1` [MTR-0183, 5-Methoxy-6-morpholin-4-yl-2-[4-(3-phenyl-ureido)-phenyl]-pyrimidine-4-carboxylic acid], for which the inhibition at 10 µM was 95%.
Consider `CCOc1c(C(=O)N2CCN(C)CC2)nc(-c2ccc(NC(=O)Nc3ccccc3)cc2)nc1N1CCOCC1` [MTR-0186, 1-{4-[5-Ethoxy-4-(4-methyl-piperazine-1-carbonyl)-6-morpholin-4-yl-pyrimidin-2-yl]-phenyl}-3-phenyl-urea], for which the inhibition at 10 µM is 96%.
Take `CCOc1c(CN2CCCCC2)nc(-c2ccc(NC(=O)Nc3ccccc3)cc2)nc1N1CCOCC1` [MTR-0193, 1-[4-(5-Ethoxy-4-morpholin-4-yl-6-piperidin-1-ylmethyl-pyrimidin-2-yl)-phenyl]-3-phenyl-urea]: the inhibition at 10 µM is 81%.
With `CSc1c(Cl)nc(-c2ccc(NC(=O)NCCN3CCOCC3)cc2)nc1N1CCOCC1` [MTR-0198, 1-[4-(4-Chloro-5-methylsulfanyl-6-morpholin-4-yl-pyrimidin-2-yl)-phenyl]-3-(2-morpholin-4-yl-ethyl)-urea], the inhibition at 10 µM was 87%.
In the case of `CSc1c(Cl)nc(-c2ccc(NC(=O)Nc3nccs3)cc2)nc1N1CCOCC1` [MTR-0200, 1-[4-(4-Chloro-5-methylsulfanyl-6-morpholin-4-yl-pyrimidin-2-yl)-phenyl]-3-thiazol-2-yl-urea], the inhibition at 10 µM amounted to 84%.
As for `CNC(=O)Nc1ccc(-c2ncc(SC)c(N3CCOCC3)n2)cc1` [MTR-0210, 1-Methyl-3-[4-(5-methylsulfanyl-4-morpholin-4-yl-pyrimidin-2-yl)-phenyl]-urea], the figure is 96%; as for `CCOC(=O)c1ccc(NC(=O)Nc2ccc(-c3nc(Cl)c(SC)c(N4CCOCC4)n3)cc2)cc1` [MTR-0212, 4-{3-[4-(4-Chloro-5-methylsulfanyl-6-morpholin-4-yl-pyrimidin-2-yl)-phenyl]-ureido}-benzoic acid ethyl ester], 85%.
As for `CSc1c(Cl)nc(-c2ccc(NC(=O)Nc3ccc(N4CCOCC4=O)cc3)cc2)nc1N1CCOCC1` [MTR-0213, 1-[4-(4-Chloro-5-methylsulfanyl-6-morpholin-4-yl-pyrimidin-2-yl)-phenyl]-3-[4-(3-oxo-morpholin-4-yl)-phenyl]-urea], the figure is 84%; as for `CSc1c(Cl)nc(-c2ccc(NC(=O)Nc3ccc(N4CCOCC4)nc3)cc2)nc1N1CCOCC1` [MTR-0237, 1-[4-(4-Chloro-5-methylsulfanyl-6-morpholin-4-yl-pyrimidin-2-yl)-phenyl]-3-(6-morpholin-4-yl-pyridin-3-yl)-urea], 85%.
